The values below come from patent publication US20040038950A1, “Pharmaceutical composition for treating IL-1 related diseases or disorders” (priority 2002, published 2004).

One assay deals with TIMP-1 mRNA. Put plainly: Osteoarthritic rabbit model (ACLT), intraarticular injection, RT-PCR of TIMP-1. Format: in vivo. To be noted: rabbit ACLT knee, intraarticular once a week for 5 weeks. As for the experimental part: (§1) Mature New Zealand White rabbits underwent bilateral anterior cruciate ligament transection (ACLT). ACLT was performed using a medial arthrotomy method. Postoperatively the animals were permitted cage (60 cm×60 cm×40 cm) activity without immobilization. The right knees received via intraartiticular injection DHEA, DHEA-pyruvate or DHEA+HA, 4 weeks after ACLT and once a week for 5 weeks. The left knees received 0.3 ml of intraarticular injection with control solution (carrier solution). After 9 weeks from ACLT, the animas were sacrificed.
(§2) Synovium (entire tissue) around the infrapatellar fat pads and cartilage tissue from the femoral condyle and the tibial plateau were harvested. The subsequent experimental procedure was the same as described in Test Example IV.

The next assay relates to type II collagen mRNA. The experiment in a line: Osteoarthritic rabbit model (ACLT), intraarticular injection, RT-PCR of type II collagen. Format: in vivo. To be noted: rabbit ACLT knee, intraarticular once a week for 5 weeks. As for the experimental part:
as §1, §2

The subject of a further assay is MMP-1 mRNA. Put plainly: Effect of IL-1β on MMP-1 mRNA expression in chondrocyte culture, RT-PCR. Format: cell-based, human. To be noted: 1000 μg/ml of IL-1β, 3 days. As for the experimental part:
(§3) Sixteen hours prior to a treatment, the complete culture medium was replaced with a serum-free medium. Chondrocyte alginate bead cultures were then treated with IL-1β ([…], (Calbiochem) and DHEA (0, 10, 50 or 100 μM) for 3 days.
(§4) Total RNA from chondrocytes was extracted using RNeasy Mini Kit (QIAGEN). Reverse transcription from 1 μg of total RNA was conducted using First Strand cDNA Synthesis Kit (MBI Fermentas) according to manufacturer's recommendation with random hexamers. The resulting cDNA was then amplified by polymerase chain reaction using AccuPower PCR Premix (Bioneer, Korea) in a final volume of 20 μl using three thermocycler temperatures (30 sec at […], 30 sec at 60° C., and 30 sec at […]). All reactions were determined to be in the linear range of amplification with the cycle number ranging from 14 to 30. The PCR products were analyzed by separation on a 2% agarose gel followed by ethidium bromide staining. Following electrophoresis, photographs were taken and analyzed using a densitometric program (TINA; Raytest Isotopenmeβgerate, Germany). Integrated density values for the genes in question were then normalized to the glyceraldehyde-3-phosphate dehydrogenase (GAPDH) values for a semiquantitative assessment. After normalizing with respect to GAPDH, percentage increase or decrease was determined. Each experiment was repeated at least three times. […]

The next assay concerns MMP-3 mRNA. Put plainly: Effect of IL-1β on MMP-3 mRNA expression in chondrocyte culture, RT-PCR. It counts as cell-based, human. The note with it: 100 μg/ml of IL-1β, 3 days. The protocol:
as §3, §4

In the case of `CC(=O)C(=O)O[C@H]1CC[C@@]2(C)C(=CC[C@@H]3[C@@H]2CC[C@]2(C)C(=O)CC[C@@H]32)C1` [DHEA-pyruvate, DHEA-Pyruvate], the “expression of TIMP-1” value in the assay with TIMP-1 mRNA is “increased”. Also, in the assay on type II collagen mRNA, the “expression of type II collagen” value is “increased”.

Take “IL-1β: recombinant human interleukin-1β (Calbiochem), used to induce MMP mRNA in chondrocytes”: in the assay with MMP-1 mRNA, the “MMP-1 mRNA, increase” value stood at 470%. Also, the “MMP-3 mRNA, increase” value in the assay with MMP-3 mRNA came out at 310%.
